# Experimental data published in patent US20080261959A1, “Novel crystalline forms of (S)-N-(1-Carboxy-2-methyl-prop-1-y)-N-pentanoyl-N[2'-(1H-tetrazol-5-yl)bi-phenyl-4-ylmethyl]-amine” (priority 2005, published 2008).
# Assay: Comparative bulk density determination
# Format: physicochemical
# Conditions: for Bulk density: powder sample
Tapped density (1250 taps) (listed as ‘Form D’ Vlasartan) [gm/ml],Bulk density (listed as ‘Form D’ Vlasartan) [gm/ml],Tapped density (1250 taps) [gm/ml],Bulk density [gm/ml],Structure (SMILES)
0.6139,0.4561,,,"CCCCC(=O)N(Cc1ccc(-c2ccccc2-c2nnn[nH]2)cc1)[C@H](C(=O)O)C(C)C [Form D, (S)-N-(1-Carboxy-2-methyl-prop-1-yl)-N-pentanoyl-N-[2′-(1H-tetrazol-5-yl)bi-phenyl-4-ylmethyl]-amine]"
,,0.504,0.37,"CCCCC(=O)N(Cc1ccc(-c2ccccc2-c2nnn[nH]2)cc1)[C@H](C(=O)O)C(C)C [Amorphous valsartan, (S)-N-(1-Carboxy-2-methyl-prop-1-yl)-N-pentanoyl-N-[2′-(1H-tetrazol-5-yl)bi-phenyl-4-ylmethyl]-amine]"
